# Values quoted from earlier work as cited in US20080166695A1, “Solution for the storage and perfusion of organs awaiting transplantation” (Sigma-Tau Industrie Farmaceutiche Riunite S.p.A., priority 2001, published 2008).
# Test system: isolated rabbit heart
# Conditions: isolated rabbit heart perfused with whole blood with L-carnitine added
smiles,measurement,value
C[N+](C)(C)C[C@H](O)CC(=O)[O-] [L-carnitine],recovery of cardiac functions,protective effect
